These results are taken from patent publication US20060217456A1, “Non-toxic coating composition, methods of use thereof and articles protected from attachment of biofouling organisms” (priority 2003, published 2006).

Converted amounts (≈) assume the structure as drawn. Read-outs that look alike come from different tables or passages of the source.

The subject of experiment [1] is cyprid stage larvae of the barnacle, Balanus amphitrite Darwin. In words: Barnacle settlement assay (cyprid larvae in seawater dishes). Type of experiment: in vivo. The note with it: single compound, 28° C., 9 hours; for EC50: Amphibalanus amphitrite, read-out: EC50 (concentration inhibiting settlement of 50% of cyprid larvae). The text has this:
Adults of the barnacle, Balanus amphitrite Darwin, were collected from the Sacred Heart Marine Research Center at St. Mary's College in Tuticorin, India. The barnacles were crushed and the nauplius stage larvae were collected for culture to the cyprid stage following the method of Rittschof et al., J. Exp. Mar. Biol. Ecol., 82:131-146 (1984). The cyprid is the stage at which the barnacle larva is competent to attach to surfaces. Upon attachment to a surface, the larva then undergoes metamorphosis into a barnacle.
Barnacle settlement assays were undertaken using the method described previously by Rittschof et al., J. Chem. Ecol., 11: 551-563 (1985). Briefly, Falcon 50×9 mm plastic petri dishes were filled with 5 ml of filtered seawater at salinity of 33-35 parts per thousand (ppt) and into which 3-day old cyprid stage larvae were added. Menthol and/or isopulegol and/or compounds listed under ii) a) to f), above, were introduced at various concentrations into the dishes containing seawater. Controls were represented by those dishes in which no test compound were added. After incubation at 28° C. for 9 hours, the dishes were examined under a dissecting microscope to determine if there was any mortality. The larvae were then killed with 10% formalin and the number of attached and unattached larvae were counted. Settlement data were expressed as the percentage of the larvae attached to the bottom of the dish.
The settlement assay was used to determine the effective concentration of a number of different compounds listed under ii) a) to f), above. The effective concentration (EC50) is that concentration which inhibited the settlement of fifty percent (50%) of the cyprid stage of the barnacle larvae present in a test sample. The racemic […] compounds are denoted with the prefix rac-.

In experiment [2] the test system is barnacle, Balanus amphitrite communis. In words: Marine paint panel immersion test, barnacles attached to painted iron panels. The note with it: cuprous oxide marine paint on iron panels, submerged 78 weeks, Bitac Cove; control = 100. How it is done:
A floating platform was constructed using layers of bamboo and styrofoam floats. The platform was designed with holders to accommodate test panels measuring 4 inches×12 inches×0.25 inches (1 inch=2.54 cm). A first experimental paint was prepared, containing a biocidally effective amount of cuprous oxide and no other biocide which was used as the control. This composition consisted of 40 parts by weight of cuprous oxide, 10 parts by weight of iron oxide red, 5 parts by weight of xylene, 10 parts by weight of butyl alcohol, 5 parts by weight polyamide resin, 6 parts by weight of plasticizer. To this composition was added a combination of 0.5% by weight of rac-isopulegol, 0.25% by weight of (−)-menthol and 0.25% by weight of 1-menthol propyleneglycol carbonate (Composition A). A second paint composition was prepared from the same marine paint vehicle containing cuprous oxide, to which was added 2% by weight of (−)-menthol (Composition B). A third formulation was made from the same cuprous oxide-containing marine paint vehicle, to which was added 2% by weight of rac-isopulegol (Composition C). A fourth formulation was made from the same cuprous oxide-containing marine paint vehicle, to which was added 2% by weight of 1-menthol propyleneglycol carbonate (Composition D). Solid iron panels having the above-mentioned dimensions were painted with the paint formulations thus prepared, placed in the holders in the floating platform and submerged continuously near the center of Bitac Cove in San Dionisio Bay (Philippines) for a period of 78 weeks. The panels were examined for a few minutes every three months and immediately resubmerged after photography. After 78 weeks, the panels were removed and inspected. The numbers of barnacles attached to the panels were counted. The major fouling organisms included the barnacle, Balanus amphitrite communis, and the rock oyster, Crossostrea cuculata.

The subject of experiment [3] is cyprid stage larvae of the barnacle, Balanus amphitrite Darwin. The note with it: single compound; 28° C., 9 hours; see WO 01/95718; cited from earlier work.

Regarding `CC(O)C(=O)O[C@@H]1C[C@H](C)CC[C@H]1C(C)C` (mixture of isomers) [I-menthyl lactate, 1-menthyllactate], in experiment [1], the EC50 came out at 0.002 µg/mL.
As for `C=C(C)[C@@H]1CC[C@@H](C)C[C@H]1O` (racemic) [rac-isopulegol], in experiment [1], the “EC50 (concentration inhibiting settlement of 50% of cyprid larvae)” value worked out at 0.029 µg/mL. For the same compound, the “% Settlement” value in experiment [2] is 16.1%.
Take `CC1CCC(C(C)C)C(O)C1` (racemic) [rac-menthol]: in experiment [3], the “EC50 (concentration inhibiting settlement of 50% of cyprid larvae)” value was 0.1 (see WO 01/95718) mg/ml.
On to `CC1CCC(C(C)C)C2(C1)OCC(CO)O2` (racemic) [rac-menthone glycerin acetal], for which, in experiment [1], the “EC50 (concentration inhibiting settlement of 50% of cyprid larvae)” value was determined as 0.049 µg/mL.
`CC1CCC(C(C)C)C(O)C1` (stereo not drawn) [1R, 2S, 5R-(−)-menthol (=l-menthol), 1R, 2S, 5R-(−)-menthol]: in experiment [3], the “EC50 (concentration inhibiting settlement of 50% of cyprid larvae)” value was 4 * 10^−3 (see WO 01/95718) mg/ml. Also, the “% Settlement” value in experiment [2] amounted to 12.2%.
For `CC1CC[C@H](C(C)C)[C@@H](O)C1` (stereo partly drawn) [1S, 2R, 5S-(+)-menthol, reference compound], the “EC50 (concentration inhibiting settlement of 50% of cyprid larvae)” value in experiment [3] was 0.1 (see WO 01/95718) mg/ml.
`C=C(C)[C@H]1CC=C(C)CC1` [d-limonene, reference compound]: the “EC50 (concentration inhibiting settlement of 50% of cyprid larvae)” value in experiment [1] is 0.029 µg/mL.
Consider `CC(C)[C@@H]1CC[C@@H](C)C[C@@]12OCC(CO)O2` (stereo partly drawn) [menthone glycerin acetal], for which, in experiment [1], the EC50 turned out to be 0.00052 µg/mL (≈ 0.00228 µM).
Still for that read-out and setting: as for `COC1CC(C)CCC1C(C)C` (stereo not drawn) [menthylmethylether, reference compound], the figure is 0.11 µg/mL (≈ 0.646 µM).
Take (−)-isopulegol: the “EC50 (concentration inhibiting settlement of 50% of cyprid larvae)” value in experiment [3] is 8.8 * 10^−5 (see WO 01/95718) mg/ml.
Regarding (−)-menthone [reference compound], the “EC50 (concentration inhibiting settlement of 50% of cyprid larvae)” value in experiment [3] was 0.001 (see WO 01/95718) mg/ml.
In the case of l-menthyl propyleneglycol carbonate, in experiment [1], the “EC50 (concentration inhibiting settlement of 50% of cyprid larvae)” value worked out at 0.0022 µg/mL. For the same compound, the “% Settlement” value in experiment [2] worked out at 23.4%.
